The source made the active and inactive calls. The calls are words filed in the database; no cut-off is given here.
Tests used:
Mu-type opioid receptor [1] = molecular target: T1, Mu-type opioid receptor (Homo sapiens, UniProt P35372); assay: Displacement of [3H]DAMGO from mu opioid receptor
[2] = molecular target: T2, Delta-type opioid receptor (Homo sapiens, UniProt P41143); assay: Displacement of [3H]p-Cl-DPDPE from delta opioid receptor
[3] = molecular target: Kappa-type opioid receptor (Homo sapiens, UniProt P41145); assay: Displacement of [3H]U-69593 from cloned kappa opioid receptor
Homo sapiens = organism: Homo sapiens; assay: Selectivity for delta opioid receptor over mu opioid receptor
Mus musculus [4] = assay: Antinociceptive effect in mouse at 30 mg/kg by tail flick assay; type: functional, organism-based; set-up: dose 30 mg/kg
Mus musculus [5] = assay: Antinociceptive effect in mouse at 30 mg/kg by hot plate assay; type: functional, organism-based; set-up: dose 30 mg/kg
Mus musculus [6] = assay: Antinociceptive effect in mouse at 30 mg/kg by antiwrithing assay; type: functional, organism-based; set-up: dose 30 mg/kg
Mus musculus [7] = assay: Antinociceptive effect in mouse at 30 mg/kg by […]; type: functional, organism-based; set-up: dose 30 mg/kg
Mu-type opioid receptor [8] = molecular target: T1, Mu-type opioid receptor; assay: Activity at mu opioid receptor assessed as stimulation of [35S]GTP-gamma-S binding; type: functional
[9] = molecular target: T2, Delta-type opioid receptor; assay: Activity at delta opioid receptor assessed as stimulation of [35S]GTP-gamma-S binding

Chain of Kappa-type opioid receptor (P41145 whole entry): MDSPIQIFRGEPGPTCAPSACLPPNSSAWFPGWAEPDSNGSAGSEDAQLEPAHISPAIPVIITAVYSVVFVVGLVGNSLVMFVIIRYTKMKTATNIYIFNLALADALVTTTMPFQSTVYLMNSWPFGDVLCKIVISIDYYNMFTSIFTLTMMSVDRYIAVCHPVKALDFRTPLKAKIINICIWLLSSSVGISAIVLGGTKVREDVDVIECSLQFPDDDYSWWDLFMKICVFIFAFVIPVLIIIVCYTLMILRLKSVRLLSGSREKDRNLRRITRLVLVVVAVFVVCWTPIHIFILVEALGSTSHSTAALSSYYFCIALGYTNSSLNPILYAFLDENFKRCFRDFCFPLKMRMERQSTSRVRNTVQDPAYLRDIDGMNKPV
T1 sequence (P35372 whole entry): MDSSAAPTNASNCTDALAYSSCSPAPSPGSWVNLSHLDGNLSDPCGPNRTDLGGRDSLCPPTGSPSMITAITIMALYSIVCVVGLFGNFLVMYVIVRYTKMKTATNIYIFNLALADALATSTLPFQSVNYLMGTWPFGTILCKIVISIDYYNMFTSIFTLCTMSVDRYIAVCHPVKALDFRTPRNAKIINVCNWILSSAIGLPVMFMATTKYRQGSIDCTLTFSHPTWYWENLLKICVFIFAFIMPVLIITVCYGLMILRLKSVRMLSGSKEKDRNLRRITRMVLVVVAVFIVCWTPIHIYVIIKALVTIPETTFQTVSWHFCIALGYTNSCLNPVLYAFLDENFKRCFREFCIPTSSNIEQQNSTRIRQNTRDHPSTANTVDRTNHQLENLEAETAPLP
T2 sequence (P41143 whole entry): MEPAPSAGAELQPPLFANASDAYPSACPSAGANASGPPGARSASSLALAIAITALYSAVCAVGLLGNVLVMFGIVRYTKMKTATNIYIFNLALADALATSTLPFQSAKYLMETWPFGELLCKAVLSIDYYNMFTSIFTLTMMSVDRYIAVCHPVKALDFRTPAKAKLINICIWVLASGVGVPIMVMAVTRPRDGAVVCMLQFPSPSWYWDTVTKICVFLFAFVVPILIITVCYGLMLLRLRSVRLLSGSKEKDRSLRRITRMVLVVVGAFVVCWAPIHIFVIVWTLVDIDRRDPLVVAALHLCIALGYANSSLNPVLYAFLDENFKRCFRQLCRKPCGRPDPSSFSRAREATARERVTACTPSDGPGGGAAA

SMILES | Ki (Mu-type opioid receptor [1]) [nM] | Ki [2] [nM] | Ki [3] [nM] | Ratio Ki (Homo sapiens) | Activity (Mus musculus [4]) | Activity (Mus musculus [5]) | Activity (Mus musculus [6]) | Activity (Mus musculus [7]) | Activity (Mu-type opioid receptor [8]) [%] | EC50 (Mu-type opioid receptor [8]) [nM] | EC50 [9] [nM]
CN1CC[C@]23c4c5ccc(O)c4O[C@H]2c2[nH]c4ccc(Cl)cc4c2C[C@@]3(O)[C@H]1C5 | 47 | 5.1 | 360 | 9 | inactive | inactive | inactive | inactive | – | – | –
CN1CC[C@]23c4c5ccc(O)c4O[C@H]2c2[nH]c4ccc(F)cc4c2C[C@@]3(O)[C@H]1C5 | 21 | 2.3 | 310 | 9 | inactive | inactive | inactive | inactive | 34 | 1080 | 16
CN1CC[C@]23c4c5ccc(O)c4O[C@H]2c2[nH]c4ccc(Br)cc4c2C[C@@]3(O)[C@H]1C5 | 71 | 8.6 | 250 | 8 | inactive | inactive | inactive | inactive | – | – | –
CN1CC[C@]23c4c5ccc(O)c4O[C@H]2c2[nH]c4ccccc4c2C[C@@]3(O)[C@H]1C5 [OXYMORPHINDOLE] | 105 | 0.9 | – | 115 | inactive | inactive | inactive | inactive | – | – | –
CN1CC[C@]23c4c5ccc(O)c4O[C@H]2c2[nH]c4ccc(I)cc4c2C[C@@]3(O)[C@H]1C5 | 66 | 3.8 | 160 | 17 | inactive | inactive | inactive | inactive | – | – | –
